Assay results reported in patent publication US20020137929A1, “1 - (3-heterocyclylphenyl) isothiourea, -isourea, -guanidine and -amidine herbicidal agents” (Intellectual Property Department, BASF Aktiengesellschaft, priority 1998, published 2002).

Key:
CYPIR (Rice Flatsedge) = test: Postemergence weed control under flooded paddy conditions; format: in vivo, Cyperus iria; conditions: postemergence weeds, rated 3 to 4 weeks after treatment
How it was run: (§1)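 Containers holding 3–5 cm weeds and rice at 1.5–2.5 leaves are flooded to 1.5–3 cm above soil. Compound in 50/50 v/v aqueous/acetone is then added directly to the water, about 0.0313–0.500 kg/ha. Plants are kept in the greenhouse and rated 0–9 visually at 3–4 weeks.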

GALAP (Galium) = test: Postemergence herbicidal evaluation; format: in vivo, Galium aparine
How it was run: (§2)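 ~2-wk seedlings; postemergence spray, 40 psi; vehicle 1:1 acetone:water + 0.5% Tween 20; rate ≈0.0156–0.500 kg/ha; greenhouse hold; scored 4–5 wk after treatment, 0–9 scale vs control; repeat tests averaged.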

ORYSAT (Rice, Tebonnet) [1] = test: Postemergence herbicidal evaluation; format: in vivo, Oryza sativa, (L.) Tebonnet
How it was run: as §2

MOOVA (Monochoria) = test: Preemergence weed control under flooded paddy conditions; format: in vivo, Monochoria vaginalis; conditions: rated 3-4 weeks after treatment
How it was run: (§3)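 Flooded-pot preemergence screen with silt loam and seeds in the upper 0.5 cm. Dose about 0.0313 to 0.500 kg/ha, delivered into flood water; visual 0-9 score after 3 to 4 weeks.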

ORYSAT (Rice, Tebonnet) [2] = test: Preemergence herbicidal evaluation; format: in vivo, Oryza sativa, (L.) Tebonnet; conditions: rated 4-5 weeks after treatment
How it was run: (§4)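 Rating at 4–5 wk post-spray on a 0–9 visual scale vs control. Application: aqueous acetone, ~0.0156–0.500 kg/ha, to soil surface after seeding, preemergence.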

[3] = tested on: CHEAL (Lambsquarters, Common); test: Postemergence herbicidal evaluation; format: in vivo, Chenopodium album
How it was run: as §2

SETVI (Foxtail, Green) = test: Preemergence herbicidal evaluation; format: in vivo, Setaria viridis; conditions: rated 4-5 weeks after treatment
How it was run: as §4

CYPSE (Flatsedge) [4] = test: Preemergence weed control under flooded paddy conditions; format: in vivo, Cyperus serotinus; conditions: rated 3-4 weeks after treatment
How it was run: as §3

ZEAMX (Corn, Field) = test: Postemergence herbicidal evaluation; format: in vivo, Zea mays
How it was run: as §2

CYPSE (Flatsedge) [5] = test: Postemergence weed control under flooded paddy conditions; format: in vivo, Cyperus serotinus; conditions: postemergence weeds, rated 3 to 4 weeks after treatment
How it was run: as §1

CASOB (Sicklepod) = test: Postemergence herbicidal evaluation; format: in vivo, Cassia obtusifolia
How it was run: as §2

[6] = tested on: GLXMAW (Soybean, Williams); test: Preemergence herbicidal evaluation; format: in vivo, Glycine max, (L.) Merr. cv Williams; conditions: rated 4-5 weeks after treatment
How it was run: as §4

[7] = tested on: SAGPY (Arrowhead (Pygmaea)); test: Postemergence weed control under flooded paddy conditions; format: in vivo, Sagittaria pygmaea; conditions: postemergence weeds, rated 3 to 4 weeks after treatment
How it was run: as §1

AMBEL (Ragweed, Common) = test: Preemergence herbicidal evaluation; format: in vivo, Ambrosia artemisifolia; conditions: rated 4-5 weeks after treatment
How it was run: as §4

For C=CCN1C(=O)C(CC(=O)OC)SC1=Nc1cc(-n2c(=O)cc(C(F)(F)F)n(C)c2=O)c(F)cc1Cl (stereo not shown) [Compound 64, Methyl 3-allyl-2-{{2-chloro-5-[3,6-dihydro-3-methyl-2,6-dioxo-4-(trifluoromethyl)-1(2H)-pyrimidinyl]-4-fluorophenyl}imino}-4-oxo-5-thiazolidineacetate], the “Herbicidal rating CYPIR” value (CYPIR (Rice Flatsedge); Rate 0.0313 kg/ha) was 0.0, the “Herbicidal rating CYPIR” value (CYPIR (Rice Flatsedge); Rate 0.0625 kg/ha) was 2.0 and the “Herbicidal rating CYPIR” value (CYPIR (Rice Flatsedge); Rate 0.1250 kg/ha) was 2.0. For the same molecule, the “Herbicidal rating CYPIR” value (CYPIR (Rice Flatsedge); Rate 0.2500 kg/ha) was 7.0, the “Postemergence herbicidal rating GALAP” value (GALAP (Galium); Rate 0.0158 kg/ha) was 5.0 and the “Postemergence herbicidal rating GALAP” value (GALAP (Galium); Rate 0.0315 kg/ha) was 7.0. The “Postemergence herbicidal rating GALAP” value (GALAP (Galium); Rate 0.0630 kg/ha) was 7.0, the “Postemergence herbicidal rating ORYSAT” value (ORYSAT (Rice, Tebonnet) [1]; Rate 0.0158 kg/ha) was 6.0 and the “Postemergence herbicidal rating ORYSAT” value (ORYSAT (Rice, Tebonnet) [1]; Rate 0.0315 kg/ha) was 6.0. The “Postemergence herbicidal rating ORYSAT” value (ORYSAT (Rice, Tebonnet) [1]; Rate 0.0630 kg/ha) was 6.0, the “MOOVA herbicidal effect rating” value (MOOVA (Monochoria); 0.0313 kg/ha) was 7.0 and the “MOOVA herbicidal effect rating” value (MOOVA (Monochoria); 0.0625 kg/ha) was 9.0. For the same molecule, the “MOOVA herbicidal effect rating” value (MOOVA (Monochoria); 0.1250 kg/ha) was 9.0, the “MOOVA herbicidal effect rating” value (MOOVA (Monochoria); 0.2500 kg/ha) was 9.0 and the “Preemergence herbicidal rating ORYSAT” value (ORYSAT (Rice, Tebonnet) [2]; rate 0.0156 kg/ha) was 0.0. For the same molecule, the “Preemergence herbicidal rating ORYSAT” value (ORYSAT (Rice, Tebonnet) [2]; rate 0.0313 kg/ha) was 0.0, the “Preemergence herbicidal rating ORYSAT” value (ORYSAT (Rice, Tebonnet) [2]; rate 0.0625 kg/ha) was 1.0 and the “Preemergence herbicidal rating ORYSAT” value (ORYSAT (Rice, Tebonnet) [2]; rate 0.1250 kg/ha) was 1.0. For the same molecule, the “Preemergence herbicidal rating ORYSAT” value (ORYSAT (Rice, Tebonnet) [2]; rate 0.2500 kg/ha) was 5.0, the “Postemergence herbicidal rating CHEAL” value ([3]; Rate 0.0158 kg/ha) was 9.0 and the “Postemergence herbicidal rating CHEAL” value ([3]; Rate 0.0315 kg/ha) was 9.0. For the same molecule, the “Postemergence herbicidal rating CHEAL” value ([3]; Rate 0.0630 kg/ha) was 9.0, the “Preemergence herbicidal rating SETVI” value (SETVI (Foxtail, Green); rate 0.0156 kg/ha) was 0.0 and the “Preemergence herbicidal rating SETVI” value (SETVI (Foxtail, Green); rate 0.0313 kg/ha) was 0.0. The “Preemergence herbicidal rating SETVI” value (SETVI (Foxtail, Green); rate 0.0625 kg/ha) was 9.0, the “Preemergence herbicidal rating SETVI” value (SETVI (Foxtail, Green); rate 0.1250 kg/ha) was 7.0 and the “Preemergence herbicidal rating SETVI” value (SETVI (Foxtail, Green); rate 0.2500 kg/ha) was 9.0. The “CYPSE herbicidal effect rating” value (CYPSE (Flatsedge) [4]; 0.0313 kg/ha) was 0.0, the “CYPSE herbicidal effect rating” value (CYPSE (Flatsedge) [4]; 0.0625 kg/ha) was 0.0 and the “CYPSE herbicidal effect rating” value (CYPSE (Flatsedge) [4]; 0.1250 kg/ha) was 0.0. The “CYPSE herbicidal effect rating” value (CYPSE (Flatsedge) [4]; 0.2500 kg/ha) was 0.0, the “Postemergence herbicidal rating ZEAMX” value (ZEAMX (Corn, Field); Rate 0.0158 kg/ha) was 7.0 and the “Postemergence herbicidal rating ZEAMX” value (ZEAMX (Corn, Field); Rate 0.0315 kg/ha) was 8.0. The “Postemergence herbicidal rating ZEAMX” value (ZEAMX (Corn, Field); Rate 0.0630 kg/ha) was 8.0, the “Herbicidal rating CYPSE” value (CYPSE (Flatsedge) [5]; Rate 0.0313 kg/ha) was 0.0 and the “Herbicidal rating CYPSE” value (CYPSE (Flatsedge) [5]; Rate 0.0625 kg/ha) was 0.0. For the same molecule, the “Herbicidal rating CYPSE” value (CYPSE (Flatsedge) [5]; Rate 0.1250 kg/ha) was 0.0, the “Herbicidal rating CYPSE” value (CYPSE (Flatsedge) [5]; Rate 0.2500 kg/ha) was 0.0 and the “Postemergence herbicidal rating CASOB” value (CASOB (Sicklepod); Rate 0.0158 kg/ha) was 2.0. For the same molecule, the “Postemergence herbicidal rating CASOB” value (CASOB (Sicklepod); Rate 0.0315 kg/ha) was 2.0, the “Postemergence herbicidal rating CASOB” value (CASOB (Sicklepod); Rate 0.0630 kg/ha) was 3.0 and the “Preemergence herbicidal rating GLXMAW” value ([6]; rate 0.0156 kg/ha) was 0.0. For the same molecule, the “Preemergence herbicidal rating GLXMAW” value ([6]; rate 0.0313 kg/ha) was 0.0, the “Preemergence herbicidal rating GLXMAW” value ([6]; rate 0.0625 kg/ha) was 2.0 and the “Preemergence herbicidal rating GLXMAW” value ([6]; rate 0.1250 kg/ha) was 3.0. The “Preemergence herbicidal rating GLXMAW” value ([6]; rate 0.2500 kg/ha) was 5.0, the “Herbicidal rating SAGPY” value ([7]; Rate 0.0313 kg/ha) was 0.0 and the “Herbicidal rating SAGPY” value ([7]; Rate 0.0625 kg/ha) was 3.0. For the same molecule, the “Herbicidal rating SAGPY” value ([7]; Rate 0.1250 kg/ha) was 5.0, the “Herbicidal rating SAGPY” value ([7]; Rate 0.2500 kg/ha) was 8.0 and the “Preemergence herbicidal rating AMBEL” value (AMBEL (Ragweed, Common); rate 0.0156 kg/ha) was 2.0. The “Preemergence herbicidal rating AMBEL” value (AMBEL (Ragweed, Common); rate 0.0313 kg/ha) was 6.0, the “Preemergence herbicidal rating AMBEL” value (AMBEL (Ragweed, Common); rate 0.0625 kg/ha) was 7.0 and the “Preemergence herbicidal rating AMBEL” value (AMBEL (Ragweed, Common); rate 0.1250 kg/ha) was 9.0. For the same molecule, the “Preemergence herbicidal rating AMBEL” value (AMBEL (Ragweed, Common); rate 0.2500 kg/ha) was 9.0.
